Experimental data from PubChem BioAssay AID220 (DTP/NCI, 2004).
Several values for one entry are separate records, joined by “and”; a condition that tells them apart may be missing. Equal values may be shown once. Inconclusive results are not listed.

System: CD8F1 mice, subcutaneous mammary adenocarcinoma, T/C%
Experiment: NCI In Vivo Anticancer Drug Screen. Data for tumor model Mammary Adenocarcinoma CD8F1 (subcutaneous) in CD8F1
Conditions: higher = larger tumour
Method in brief: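 Tumor-bearing mice, transplantable model; readout survival or tumor size; value = treated (T) / vehicle control (C).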

[1] = endpoint: median tumor weight (est.), dose: 6.25 mg/kg/injection, schedule: Q07DX005 (ip), vehicle: saline with Tween-80
[2] = endpoint: median tumor weight (est.), dose: 12.5 mg/kg/injection, schedule: Q07DX005 (ip), vehicle: saline with Tween-80
[3] = endpoint: median tumor weight (est.), dose: 25.0 mg/kg/injection, schedule: Q07DX005 (ip), vehicle: saline with Tween-80
[4] = endpoint: median tumor weight (est.), dose: 2.0 mg/kg/injection, schedule: Q07DX005 (ip), vehicle: saline
[5] = endpoint: median tumor weight (est.), dose: 50.0 mg/kg/injection, schedule: Q07DX005 (ip), vehicle: saline with Tween-80

Cc1cc(NCCCCCCCNc2cc(C)nc3cc(N)ccc23)c2ccc(N)cc2n1
T/C (endpoint: median tumor weight (est.), dose: 3.12 mg/kg/injection, schedule: Q07DX005 (ip), vehicle: saline with Tween-80): 89 % of control | T/C [1]: 111 % of control | T/C [2]: 79 % of control | T/C [3]: 26 % of control | T/C (endpoint: median tumor weight change, dose: 31.25 mg/kg/injection, schedule: Q01DX001 (ip), vehicle: saline with Tween-80): 28 % of control and 45 % of control | T/C (endpoint: median tumor weight change, dose: 62.5 mg/kg/injection, schedule: Q01DX001 (ip), vehicle: saline with Tween-80): 27 % of control

O=c1c(O)c(-c2ccc(O)c(O)c2)oc2cc(O)cc(O)c12
T/C (endpoint: median tumor weight (est.), dose: 25.0 mg/kg/injection, schedule: Q07DX005 (ip), vehicle: other): 52 % of control | T/C (endpoint: median tumor weight (est.), dose: 50.0 mg/kg/injection, schedule: Q07DX005 (ip), vehicle: other): 114 % of control | T/C (endpoint: median tumor weight (est.), dose: 100.0 mg/kg/injection, schedule: Q07DX005 (ip), vehicle: other): 98 % of control | T/C (endpoint: median tumor weight (est.), dose: 400.0 mg/kg/injection, schedule: Q07DX005 (ip), vehicle: other): 49 % of control

Cc1c(N)nc([C@H](CC(N)=O)NC[C@H](N)C(N)=O)nc1C(=O)N[C@H](C(=O)N[C@H](C)[C@@H](O)[C@H](C)C(=O)N[C@H](C(=O)NCCc1nc(-c2nc(C(=O)NCCC[S+](C)C)cs2)cs1)[C@@H](C)O)C(OC1OC(CO)C(O)C(O)C1OC1OC(CO)C(O)C(OC(N)=O)C1O)c1cnc[nH]1 (stereo partly drawn)
T/C (endpoint: median tumor weight (est.), dose: 1.0 mg/kg/injection, schedule: Q07DX006 (ip), vehicle: saline): 93 % of control | T/C [4]: 25 % of control | T/C (endpoint: median tumor weight (est.), dose: 2.0 mg/kg/injection, schedule: Q07DX006 (ip), vehicle: saline): 100 % of control | T/C (endpoint: median tumor weight (est.), dose: 8.0 mg/kg/injection, schedule: Q07DX006 (ip), vehicle: saline): 55 % of control | T/C (endpoint: median tumor weight (est.), dose: 16.0 mg/kg/injection, schedule: Q07DX005 (ip), vehicle: saline): 10 % of control and 13 % of control and 23 % of control | T/C (endpoint: median tumor weight (est.), dose: 16.0 mg/kg/injection, schedule: Q07DX006 (ip), vehicle: saline): 61 % of control | T/C (endpoint: median tumor weight (est.), dose: 32.0 mg/kg/injection, schedule: Q07DX005 (ip), vehicle: saline): 6 % of control and 7 % of control | T/C (endpoint: median tumor weight (est.), dose: 32.0 mg/kg/injection, schedule: Q07DX006 (ip), vehicle: saline): 8 % of control | T/C (endpoint: median tumor weight (est.), dose: 64.0 mg/kg/injection, schedule: Q07DX005 (ip), vehicle: saline): 2 % of control | T/C (endpoint: median tumor weight change, dose: 4.0 mg/kg/injection, schedule: Q01DX001 (ip), vehicle: saline): 124 % of control

C=C(C(=O)O)C(N)C(=O)O (stereo not drawn)
T/C (endpoint: median tumor weight change, dose: 62.5 mg/kg/injection, schedule: Q01DX001 (ip), vehicle: saline): 96 % of control | T/C (endpoint: median tumor weight change, dose: 125.0 mg/kg/injection, schedule: Q01DX001 (ip), vehicle: saline): 100 % of control | T/C (endpoint: median tumor weight change, dose: 250.0 mg/kg/injection, schedule: Q01DX001 (ip), vehicle: saline): 61 % of control | T/C (endpoint: median tumor weight change, dose: 500.0 mg/kg/injection, schedule: Q01DX001 (ip), vehicle: saline): 71 % of control

CCCCc1ccc2nc(NC(=O)OC)[nH]c2c1
T/C (endpoint: mean tumor weight, dose: 12.5 mg/kg/injection, schedule: Q07DX006 (ip), vehicle: saline with Tween-80): 196 % of control | T/C (endpoint: mean tumor weight, dose: 100.0 mg/kg/injection, schedule: Q07DX006 (ip), vehicle: saline with Tween-80): 120 % of control | T/C (endpoint: mean tumor weight, dose: 200.0 mg/kg/injection, schedule: Q07DX006 (ip), vehicle: saline with Tween-80): 161 % of control | T/C (endpoint: mean tumor weight, dose: 400.0 mg/kg/injection, schedule: Q07DX006 (ip), vehicle: saline with Tween-80): 67 % of control | T/C [2]: 55 % of control | T/C [3]: 61 % of control | T/C [5]: 122 % of control | T/C (endpoint: median tumor weight (est.), dose: 100.0 mg/kg/injection, schedule: Q07DX005 (ip), vehicle: saline with Tween-80): 84 % of control | T/C (endpoint: median tumor weight (est.), dose: 200.0 mg/kg/injection, schedule: Q07DX005 (ip), vehicle: saline with Tween-80): 49 % of control

Cc1c(N)nc(C(CC(N)=O)NCC(N)C(N)=O)nc1C(=O)NC(C(=O)NC(C)C(O)CC(=O)NC(C(=O)NC(OC1OC(C)C(N)C(O)C1O)C(O)c1nc(-c2nc(C(=O)NCCCC(N)CC(=O)NCCCNCCCCN)cs2)cs1)C(C)O)C(OC1OC(CO)C(O)C(O)C1OC1OC(CO)C(O)C(OC(N)=O)C1O)c1cnc[nH]1 (stereo not drawn)
T/C [4]: 15 % of control | T/C (endpoint: median tumor weight (est.), dose: 4.0 mg/kg/injection, schedule: Q07DX005 (ip), vehicle: saline): 20 % of control | T/C (endpoint: median tumor weight (est.), dose: 8.0 mg/kg/injection, schedule: Q07DX005 (ip), vehicle: saline): 10 % of control

CC1=C(O)C(=O)[C@@H]2O[C@@H]2C1=O
T/C (endpoint: median tumor weight change, dose: 7.8 mg/kg/injection, schedule: Q01DX001 (ip), vehicle: saline): 54 % of control | T/C (endpoint: median tumor weight change, dose: 15.6 mg/kg/injection, schedule: Q01DX001 (ip), vehicle: saline): 81 % of control | T/C (endpoint: median tumor weight change, dose: 31.25 mg/kg/injection, schedule: Q01DX001 (ip), vehicle: saline): 48 % of control

O=C(O)C1CSCN1 (stereo not drawn)
T/C (endpoint: median tumor weight change, dose: 12.5 mg/kg/injection, schedule: Q01DX001 (ip), vehicle: water): 79 % of control | T/C (endpoint: median tumor weight change, dose: 25.0 mg/kg/injection, schedule: Q01DX001 (ip), vehicle: water): 111 % of control | T/C (endpoint: median tumor weight change, dose: 50.0 mg/kg/injection, schedule: Q01DX001 (ip), vehicle: water): 173 % of control | T/C (endpoint: median tumor weight change, dose: 100.0 mg/kg/injection, schedule: Q01DX001 (ip), vehicle: water): 90 % of control | T/C (endpoint: median tumor weight change, dose: 200.0 mg/kg/injection, schedule: Q01DX001 (ip), vehicle: water): 59 % of control

O=C1c2ccccc2C(=O)c2c3c(cc(NCCNCCO)c21)N(CCO)CCN3
T/C (endpoint: median tumor weight change, dose: 125.0 mg/kg/injection, schedule: Q01DX001 (ip), vehicle: saline with Tween-80): 97 % of control | T/C (endpoint: median tumor weight change, dose: 250.0 mg/kg/injection, schedule: Q01DX001 (ip), vehicle: saline with Tween-80): 91 % of control | T/C (endpoint: median tumor weight change, dose: 500.0 mg/kg/injection, schedule: Q01DX001 (ip), vehicle: saline with Tween-80): 77 % of control

O=S1(=O)C=C(c2ccccc2)C(c2ccccc2)=C1
T/C [1]: 80 % of control | T/C [3]: 72 % of control | T/C [5]: 108 % of control

COc1c(C=O)c2c(c(OC)c1OC)-c1ccc(OC)c(=O)cc1[C@@H](NC(C)=O)CC2
T/C (endpoint: median tumor weight change, dose: 8.0 mg/kg/injection, schedule: Q01DX001 (ip), vehicle: Klucel (hydroxypropylcellulose) (HPC)): 76 % of control | T/C (endpoint: median tumor weight change, dose: 15.62 mg/kg/injection, schedule: Q01DX001 (ip), vehicle: Klucel (hydroxypropylcellulose) (HPC)): 93 % of control | T/C (endpoint: median tumor weight change, dose: 16.0 mg/kg/injection, schedule: Q01DX001 (ip), vehicle: Klucel (hydroxypropylcellulose) (HPC)): 88 % of control | T/C (endpoint: median tumor weight change, dose: 31.0 mg/kg/injection, schedule: Q01DX001 (ip), vehicle: Klucel (hydroxypropylcellulose) (HPC)): 54 % of control | T/C (endpoint: median tumor weight change, dose: 31.25 mg/kg/injection, schedule: Q01DX001 (ip), vehicle: Klucel (hydroxypropylcellulose) (HPC)): 69 % of control | T/C (endpoint: median tumor weight change, dose: 62.0 mg/kg/injection, schedule: Q01DX001 (ip), vehicle: Klucel (hydroxypropylcellulose) (HPC)): 17 % of control | T/C (endpoint: median tumor weight change, dose: 62.5 mg/kg/injection, schedule: Q01DX001 (ip), vehicle: Klucel (hydroxypropylcellulose) (HPC)): 7 % of control

ClCC[N+]12CC[N+](CCCl)(CC1)C2
T/C (endpoint: mean tumor weight, dose: 12.5 mg/kg/injection, schedule: Q07DX006 (ip), vehicle: water): 16 % of control | T/C (endpoint: mean tumor weight, dose: 25.0 mg/kg/injection, schedule: Q07DX006 (ip), vehicle: water): 85 % of control | T/C (endpoint: mean tumor weight, dose: 50.0 mg/kg/injection, schedule: Q07DX006 (ip), vehicle: water): 72 % of control | T/C (endpoint: mean tumor weight, dose: 100.0 mg/kg/injection, schedule: Q07DX006 (ip), vehicle: water): 18 % of control | T/C (endpoint: mean tumor weight, dose: 200.0 mg/kg/injection, schedule: Q07DX006 (ip), vehicle: water): 3 % of control | T/C (endpoint: median tumor weight (est.), dose: 12.5 mg/kg/injection, schedule: Q07DX005 (ip), vehicle: water): 70 % of control | T/C (endpoint: median tumor weight (est.), dose: 25.0 mg/kg/injection, schedule: Q07DX005 (ip), vehicle: water): 54 % of control | T/C (endpoint: median tumor weight (est.), dose: 50.0 mg/kg/injection, schedule: Q07DX005 (ip), vehicle: saline): 68 % of control and 50 % of control | T/C (endpoint: median tumor weight (est.), dose: 50.0 mg/kg/injection, schedule: Q07DX005 (ip), vehicle: water): 49 % of control | T/C (endpoint: median tumor weight (est.), dose: 100.0 mg/kg/injection, schedule: Q07DX005 (ip), vehicle: water): 32 % of control | T/C (endpoint: median tumor weight (est.), dose: 200.0 mg/kg/injection, schedule: Q07DX005 (ip), vehicle: saline): 20 % of control | T/C (endpoint: median tumor weight (est.), dose: 400.0 mg/kg/injection, schedule: Q07DX005 (ip), vehicle: saline): 6 % of control

CCNC(=O)[B-][N+](C)(C)C
T/C (endpoint: median tumor weight change, dose: 50.0 mg/kg/injection, schedule: Q01DX001 (ip), vehicle: Klucel (hydroxypropylcellulose) (HPC)): 101 % of control | T/C (endpoint: median tumor weight change, dose: 100.0 mg/kg/injection, schedule: Q01DX001 (ip), vehicle: Klucel (hydroxypropylcellulose) (HPC)): 108 % of control | T/C (endpoint: median tumor weight change, dose: 200.0 mg/kg/injection, schedule: Q01DX001 (ip), vehicle: Klucel (hydroxypropylcellulose) (HPC)): 97 % of control | T/C (endpoint: median tumor weight change, dose: 400.0 mg/kg/injection, schedule: Q01DX001 (ip), vehicle: Klucel (hydroxypropylcellulose) (HPC)): 72 % of control
